Read-outs that look alike come from different tables or passages of the source.
Assays:
[1] = Description: For this evaluation, excipients were added to clear glass vials at ambient temperature. […] The vials were attached to a Burrell Action Wrist Shaker (mechanical shaker) and agitated for approximately 60 hours (hrs) at ambient conditions.
After shaking for approximately 60 hrs, a first portion of the supernatant solution from each vial was submitted for chemical analysis. A second portion of the remaining dispersions was transferred to amber vials and stored at ambient conditions.

[2] = J Pharm Pharmacol 1993, 45:682-686, cited from earlier work
[3] = Acidified PEG 400 Solution with water [PEG 400 (59.7%) + acetic acid (30.0%) + water (10.3%)], 2 Weeks in Amber Vials
[4] = Acidified PEG 400 Solution with water [PEG 400 (59.7%) + acetic acid (30.0%) + water (10.3%)], 2 Weeks in Clear Vials
[5] = Acidified PEG 400 Solution with water [PEG 400 (59.7%) + acetic acid (30.0%) + water (10.3%)], Initial
[6] = Caprylocaproyl Polyoxyl-8 Glycerides NF (Labrasol), 2 Weeks in Amber Vials
[7] = Caprylocaproyl Polyoxyl-8 Glycerides NF (Labrasol), 2 Weeks in Clear Vials
[8] = Caprylocaproyl Polyoxyl-8 Glycerides NF (Labrasol), Initial
[9] = Medium Chain Triglycerides NF (MCT), 2 Weeks in Amber Vials
[10] = Medium Chain Triglycerides NF (MCT), 2 Weeks in Clear Vials
[11] = Medium Chain Triglycerides NF (MCT), Initial
[12] = Mono/Diglycerides of Capric/Caprylic Acid NF (Capmul MCM), 2 Weeks in Amber Vials
[13] = Mono/Diglycerides of Capric/Caprylic Acid NF (Capmul MCM), 2 Weeks in Clear Vials
[14] = Mono/Diglycerides of Capric/Caprylic Acid NF (Capmul MCM), Initial
[15] = Polyethylene Glycol 400, NF (PEG 400), 2 Weeks in Amber Vials
[16] = Polyethylene Glycol 400, NF (PEG 400), 2 Weeks in Clear Vials
[17] = Polyethylene Glycol 400, NF (PEG 400), Initial
[18] = Polyoxyl-35 Castor Oil NF (Kolliphor EL), 2 Weeks in Amber Vials
[19] = Polyoxyl-35 Castor Oil NF (Kolliphor EL), 2 Weeks in Clear Vials
[20] = Polyoxyl-35 Castor Oil NF (Kolliphor EL), Initial
[21] = Polysorbate 80 NF (Tween 80), 2 Weeks in Amber Vials
[22] = Polysorbate 80 NF (Tween 80), 2 Weeks in Clear Vials
[23] = Polysorbate 80 NF (Tween 80), Initial

- Equilibrium solubility of famotidine, mg/g Solvent [1, 3]: 137 mg/g
- Equilibrium solubility of famotidine, mg/g Total [1, 3]: 121 mg/g
- Equilibrium solubility of famotidine, mg/g Solvent [1, 4]: 141 mg/g
- Equilibrium solubility of famotidine, mg/g Total [1, 4]: 124 mg/g
- Equilibrium solubility of famotidine, mg/g Solvent [1, 5]: 160 mg/g
- Equilibrium solubility of famotidine, mg/g Total [1, 5]: 138 mg/g
- Equilibrium solubility of famotidine, mg/g Solvent [1, 6]: 58 mg/g
- Equilibrium solubility of famotidine, mg/g Total [1, 6]: 55 mg/g
- Equilibrium solubility of famotidine, mg/g Solvent [1, 7]: 61 mg/g
- Equilibrium solubility of famotidine, mg/g Total [1, 7]: 57 mg/g
- Equilibrium solubility of famotidine, mg/g Solvent [1, 8]: 61 mg/g
- Equilibrium solubility of famotidine, mg/g Total [1, 8]: 57 mg/g
- Equilibrium solubility of famotidine, mg/g Solvent ([1]; Glacial acetic acid, Initial): 318 mg/g
- Equilibrium solubility of famotidine, mg/g Total ([1]; Glacial acetic acid, Initial): 241 mg/g
- Equilibrium solubility of famotidine, mg/g Solvent [1, 12]: 3 mg/g
- Equilibrium solubility of famotidine, mg/g Total [1, 12]: 3 mg/g
- Equilibrium solubility of famotidine, mg/g Solvent [1, 13]: 3 mg/g
- Equilibrium solubility of famotidine, mg/g Total [1, 13]: 3 mg/g
- Equilibrium solubility of famotidine, mg/g Solvent [1, 14]: 3 mg/g
- Equilibrium solubility of famotidine, mg/g Total [1, 14]: 3 mg/g
- Equilibrium solubility of famotidine, mg/g Solvent [1, 15]: 115 mg/g
- Equilibrium solubility of famotidine, mg/g Total [1, 15]: 103 mg/g
- Equilibrium solubility of famotidine, mg/g Solvent [1, 16]: 116 mg/g
- Equilibrium solubility of famotidine, mg/g Total [1, 16]: 104 mg/g
- Equilibrium solubility of famotidine, mg/g Solvent [1, 17]: 118 mg/g
- Equilibrium solubility of famotidine, mg/g Total [1, 17]: 106 mg/g
- Equilibrium solubility of famotidine, mg/g Solvent [1, 18]: 64 mg/g
- Equilibrium solubility of famotidine, mg/g Total [1, 18]: 60 mg/g
- Equilibrium solubility of famotidine, mg/g Solvent [1, 19]: 63 mg/g
- Equilibrium solubility of famotidine, mg/g Total [1, 19]: 60 mg/g
- Equilibrium solubility of famotidine, mg/g Solvent [1, 20]: 64 mg/g
- Equilibrium solubility of famotidine, mg/g Total [1, 20]: 60 mg/g
- Equilibrium solubility of famotidine, mg/g Solvent [1, 21]: 45 mg/g
- Equilibrium solubility of famotidine, mg/g Total [1, 21]: 43 mg/g
- Equilibrium solubility of famotidine, mg/g Solvent [1, 22]: 36 mg/g
- Equilibrium solubility of famotidine, mg/g Total [1, 22]: 35 mg/g
- Equilibrium solubility of famotidine, mg/g Solvent [1, 23]: 45 mg/g
- Equilibrium solubility of famotidine, mg/g Total [1, 23]: 43 mg/g
- Equilibrium solubility of famotidine, mg/g Solvent ([1]; Propylene Glycol USP, Initial): 17 mg/g
- Equilibrium solubility of famotidine, mg/g Total ([1]; Propylene Glycol USP, Initial): 17 mg/g
- solubility of famotidine (in words) ([1]; hydrophilic solvents (PEG 400, acidified PEG 400 solution with water, glacial acetic acid)): High solubility
SMILES: NC(N)=Nc1nc(CSCCC(N)=NS(N)(=O)=O)cs1 [famotidine]
- Equilibrium solubility of famotidine, mg/g Solvent [1, 9]: ND (“ND” means not detected, famotidine content was below 0.1 mg/g.)
- Equilibrium solubility of famotidine, mg/g Total [1, 9]: ND (“ND” means not detected, famotidine content was below 0.1 mg/g.)
- Equilibrium solubility of famotidine, mg/g Solvent [1, 10]: ND (“ND” means not detected, famotidine content was below 0.1 mg/g.)
- Equilibrium solubility of famotidine, mg/g Total [1, 10]: ND (“ND” means not detected, famotidine content was below 0.1 mg/g.)
- Equilibrium solubility of famotidine, mg/g Solvent [1, 11]: ND (“ND” means not detected, famotidine content was below 0.1 mg/g.)
- Equilibrium solubility of famotidine, mg/g Total [1, 11]: ND (“ND” means not detected, famotidine content was below 0.1 mg/g.)
- aqueous solubility [2]: poor aqueous solubility
- lipophilicity [2]: poor lipophilicity
- stability versus pH ([2]; liquid media): low stability outside a pH range of 6 to 7

From patent publication US20250367126A1, “SOFTGEL CAPSULE COMPRISING A H2 RECEPTOR ANTAGONIST” (KENVUE BRANDS LLC, priority 2024, published 2025)
